Source: patent US5236946A, “Amino acid esters of cycloaliphatic alcohols and their use in treating lipemic disorders” (Panmedica S.A., priority 1986, dated 1993)
Counter-ions that a name gives are not always drawn.

How the values were obtained:
[1] = test system: experimental hyperlipemia induced by Triton (rats); test: Activity on the experimental hyperlipemia induced by Triton; type: in vivo; settings: rat, Triton 300 mg/kg i.p., 18 hours
Procedure: EXAMPLE XV-ACTIVITY ON THE EXPERIMENTAL HYPERLIPEMIA INDUCED BY TRITON
Groups of 10 fasted rats weighing about 200 g are treated with an intraperitoneal injection of Triton at a dose of 300 mg/kg; immediately afterwards, the products are administered orally.
After 18 hours, the cholesterol and triglycerides are determined.

[2] = test system: rats rendered hyperlipemic with olive oil; test: Hypolipemic activity in rats rendered hyperlipemic with olive oil; type: in vivo; settings: rat, atherogenic diet enriched with olive oil
Procedure: EXAMPLE XVI-HYPOLIPEMIC ACTIVITY IN RATS RENDERED HYPERLIPEMIC WITH OLIVE OIL
A group of rats is placed on an atherogenic hyperlipemic diet enriched with olive oil and the animals are then treated per os. The cholesterol and triglycerides are then determined as in the previous example. […]

[3] = target: T1, 3-hydroxy-3-methylglutaryl coenzyme A reductase (Rattus norvegicus, UniProt P51639); test: Inhibitory activity towards 3-hydroxy-3-methylglutaryl coenzyme A reductase (method of Shefer et al.); type: biochemical
T1 sequence (P51639 1-887): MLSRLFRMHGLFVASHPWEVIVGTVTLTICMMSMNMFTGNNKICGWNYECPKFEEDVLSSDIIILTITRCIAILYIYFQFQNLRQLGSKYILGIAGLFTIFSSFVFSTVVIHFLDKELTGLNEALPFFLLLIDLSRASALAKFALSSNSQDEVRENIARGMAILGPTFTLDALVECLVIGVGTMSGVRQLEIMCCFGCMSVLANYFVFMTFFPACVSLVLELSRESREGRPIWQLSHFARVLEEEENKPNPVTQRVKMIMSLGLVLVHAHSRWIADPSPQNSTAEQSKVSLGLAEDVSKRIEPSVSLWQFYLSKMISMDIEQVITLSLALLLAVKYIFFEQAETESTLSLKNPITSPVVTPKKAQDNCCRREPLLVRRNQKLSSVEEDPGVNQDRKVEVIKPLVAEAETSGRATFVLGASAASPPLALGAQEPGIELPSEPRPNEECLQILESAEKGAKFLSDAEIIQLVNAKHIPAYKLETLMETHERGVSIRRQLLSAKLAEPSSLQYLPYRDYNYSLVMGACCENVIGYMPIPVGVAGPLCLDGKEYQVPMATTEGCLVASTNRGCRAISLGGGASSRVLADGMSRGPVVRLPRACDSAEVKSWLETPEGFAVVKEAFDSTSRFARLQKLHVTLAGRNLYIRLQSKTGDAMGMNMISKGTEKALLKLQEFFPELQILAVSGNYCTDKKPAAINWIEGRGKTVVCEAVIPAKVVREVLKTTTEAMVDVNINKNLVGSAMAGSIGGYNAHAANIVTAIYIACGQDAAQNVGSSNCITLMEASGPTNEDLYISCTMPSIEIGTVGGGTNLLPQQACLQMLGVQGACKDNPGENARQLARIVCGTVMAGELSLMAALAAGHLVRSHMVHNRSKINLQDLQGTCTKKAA
Description: EXAMPLE XVII-DETERMINATION OF THE INHIBITORY ACTIVITY OF THE COMPOUNDS TOWARDS 3-HYDROXY-3-METHYLGLUTARYL COENZYME A REDUCTASE
The method used is the one described by Shefer et al. (J. Lipid Res. 1972, 13, 402); cf. also Stokker (J. Med. Chem. 1985, 28, 357).

[4] = test system: cholesterol synthesis; settings: cited from earlier work
[5] = oral 150 mg/kg, listed as Ex. I
[6] = per os 100 mg/kg, listed as Ex. I
[7] = oral 150 mg/kg, listed as Ex. IV
[8] = per os 100 mg/kg, listed as Ex. IV
[9] = oral 150 mg/kg, listed as Ex. III
[10] = per os 100 mg/kg, listed as Ex. III

CC1CC(OC(=O)[C@@H]2CCC(=O)N2)CC(C)(C)C1 (single isomer, unassigned) [Example I, 3,3,5-Trimethylcyclohexyl L-pyroglutamate]
Cholesterol level ([1]; oral 50 mg/kg): 2.80 g/L
Triglyceride level ([1]; oral 50 mg/kg): 1.46 g/L
Cholesterol level [1, 5]: 1.95 g/L
Triglyceride level [1, 5]: 0.93 g/L
Cholesterol level ([2]; per os 25 mg/kg): 1.73 g/L
Triglyceride level ([2]; per os 25 mg/kg): 1.39 g/L
Cholesterol level [2, 6]: 1.50 g/L
Triglyceride level [2, 6]: 0.80 g/L
IC50 [3]: 100 nM

CC1CC(OC(=O)[C@@H]2CCC(=O)N2)CC(C)(C)C1 (single isomer, unassigned) [Example IV, 3,3,5-TRIMETHYLCYCLOHEXYL PYROGLUTAMATE]
Cholesterol level [1, 7]: 2.15 g/L
Triglyceride level [1, 7]: 0.85 g/L
Cholesterol level [2, 8]: 1.47 g/L
Triglyceride level [2, 8]: 0.80 g/L
IC50 [3]: 150 nM

CN(C)CCCN(C)[C@H]1CC[C@H]2[C@@H]3CC=C4C[C@@H](O)CC[C@]4(C)[C@H]3CC[C@]12C [20, 25-Diazacholesterol]
inhibits cholesterol synthesis [4]: inhibits cholesterol synthesis

CC1CC(OC(=O)[C@@H]2CCC(=O)N2)CC(C)(C)C1 (some centres unmarked) [Example III, 3,3,5-trimethylcyclohexyl pyroglutamate]
Cholesterol level [1, 9]: 2.00 g/L
Triglyceride level [1, 9]: 1.10 g/L
Cholesterol level [2, 10]: 1.47 g/L
Triglyceride level [2, 10]: 1.01 g/L

CC1CC(C)CC(OC(=O)[C@@H]2CCC(=O)N2)C1 (stereo partly drawn) [Example IX, L-Pyroglutamate of 3,5-dimethylcyclohexanol]
Cholesterol level ([1]; oral 150 mg/kg): 2.10 g/L
Triglyceride level ([1]; oral 150 mg/kg): 1.30 g/L
IC50 [3]: 400 nM

CC1CC(OC(=O)[C@@H](N)CCC(N)=O)CC(C)(C)C1 (stereo partly drawn) [Example V, trans-3,3,5-trimethylcyclohexyl L-γ-amidoglutamate hydrochloride]
Cholesterol level ([1]; oral 150 mg/kg): 1.95 g/L
Triglyceride level ([1]; oral 150 mg/kg): 1.15 g/L
Cholesterol level ([2]; per os 100 mg/kg): 1.62 g/L
Triglyceride level ([2]; per os 100 mg/kg): 0.92 g/L
IC50 [3]: 80 nM

CC1CC(OC(=O)[C@@H](N)CCC(=O)O)CC(C)(C)C1 (stereo partly drawn) [Example VI, TRANS-3,3,5-TRIMETHYLCYCLOHEXYL L-α-GLUTAMATE HYDROCHLORIDE]
Cholesterol level ([1]; oral 150 mg/kg): 2.50 g/L
Triglyceride level ([1]; oral 150 mg/kg): 2.00 g/L
IC50 [3]: 120 nM

CC(=O)N[C@@H](CC(=O)O)C(=O)OC1CC(C)CC(C)(C)C1 (stereo partly drawn) [Example VII, MAGNESIUM SALT OF 3,3,5-TRIMETHYLCYCLOHEXYL N-ACETYL-L-α-ASPARTATE]
Cholesterol level ([1]; oral 150 mg/kg): 3.00 g/L
Triglyceride level ([1]; oral 150 mg/kg): 2.70 g/L
IC50 [3]: 500 nM

O=C1CC[C@@H](C(=O)OC2CCCCC2)N1 [Example VIII, L-Pyroglutamate of cyclohexanol]
IC50 [3]: 550 nM

CC1CCCC(C)C1OC(=O)[C@@H]1CCC(=O)N1 (stereo partly drawn) [Example X, L-Pyroglutamate of 2,6-dimethylcyclohexanol]
IC50 [3]: 400 nM

CC1=CC(OC(=O)[C@@H]2CCC(=O)N2)CC(C)(C)C1 (stereo partly drawn) [Example XI, L-Pyroglutamate of 3,5,5-trimethylcyclohex-2-en-1-ol]
Cholesterol level ([1]; oral 150 mg/kg): 2.00 g/L
Triglyceride level ([1]; oral 150 mg/kg): 1.92 g/L
IC50 [3]: 130 nM

CC1(OC(=O)[C@@H]2CCC(=O)N2)CCCC1 [Example XII, L-Pyroglutamate of 1-methylcyclopentanol]
IC50 [3]: 600 nM

CC1=CCC(OC(=O)[C@@H]2CCC(=O)N2)(C(C)C)CC1 (stereo partly drawn) [Example XIII, L-Pyroglutamate of terpin-4-enol]
Cholesterol level ([1]; oral 150 mg/kg): 1.90 g/L
Triglyceride level ([1]; oral 150 mg/kg): 1.20 g/L
IC50 [3]: 210 nM

CC1=CCC(C(C)(C)OC(=O)[C@@H]2CCC(=O)N2)CC1 (stereo partly drawn) [Example XIV, L-Pyroglutamate of terpineol]
Cholesterol level ([1]; oral 150 mg/kg): 2.12 g/L
Triglyceride level ([1]; oral 150 mg/kg): 1.10 g/L
IC50 [3]: 300 nM

O=C(O)c1cccnc1 [nicotinic acid, reference compound]
Cholesterol level ([1]; oral 500 mg/kg): 5.00 g/L
Triglyceride level ([1]; oral 500 mg/kg): 1.41 g/L
